Earlier results in patent US7547776B1, “Process for the production of fludarabine-phosphate lithium, sodium, potassium, calcium and magnesium salts and purification process for the production of fludarabine-phosphate and fludarabine-phosphate with a purity of at least 99.5%” (Bayer Schering Pharma Aktiengesellschaft, priority 1997, dated 2009).

Conditions: in water at approximately 75° C. (recrystallization)

Nc1nc(F)nc2c1ncn2[C@@H]1O[C@H](COP(=O)(O)O)[C@@H](O)[C@@H]1O [fludarabine-phosphate, 9-β-D-arabinofuranosyl-2-fluoroadenine-5′-O-dihydrogenphosphate]
thermal stability in water: thermally unstable
